Measurements from patent US9265739B2, “Methods and use of compounds that bind to HER2/neu receptor complex” (The Trustees Of The University Of Pennsylvania, priority 2010, dated 2016).

What was measured:
HC1 cells = test: MTT cell proliferation assay, HC1 cells; assay type: cell-based, human; conditions: indicated doses, three days, FIG. 3
From the text: (§1) The activity of S22-57 in cell proliferation assays using different cell lines was examined. T6-17 is a murine cell line engineered to express human HER2/neu. […] HBL100 is an immortalized human breast cancer cell line. XHT-1-1A are mouse NIH3T3 cells transformed by Harvey-RAS (XHT-1-1a) previously developed and used (Drebin, et al., Cell 41, 697-706 (1985)). Both HBL100 and XHT-1-1A are used as controls. To measure cell proliferation, we used the modified 3-[4,5-dimethylthiazol-2-yl]-2,5-diphenyl tetrazolium bromide (MTT) assay as previously described (Masuda, et al., Oncogene 25, 7740-7746 (2006)). Cells (2000-5000 cells/well) were seeded in 96-well plates in the presence of inhibitors with different concentration and incubated at 37° C. in a humidified 5% CO2 atmosphere. After 72 h, cells were incubated in fresh medium for another 4 hours before a total of 25 μl of MTT solution (5 mg/ml in PBS) was added to each well, and after 2 h of incubation at 37° C., 100 μl of the extraction buffer (20% w/v SDS, 50% N,N-dimethyl formamide, pH 4.7) was added. After an overnight incubation at 37° C., the optical density at 570 nm was measured using a Tecan ELISA reader. […] Proliferation of cells was measured by the MTT assay.

SK-BR-3 cells = test: Soft agar colony growth screening, SK-BR-3 cells; assay type: cell-based; conditions: soft agar colonies counted on day 21, relative to DMSO control, p<0.05, FIG. 1/2
Experimental: (§2) Targeted molecules were screened in vitro for anti-tumor activity using a modified […] growth of transformed cell assay, as described in Fukazawa et al. (1995), Anal. Biochem., 10:83-90. Anchorage-independent growth capability is perhaps the best indicator of the malignant phenotype and is determined by efficiency of cells to form colonies in soft agar (Drebin, et al., Cell 41, 697-706 (1985)). All experiments were conducted in 6 cm dishes in triplicate. Agar bottom layers consisted of 3 ml 0.25% agarose/DMEM (Dulbecco's Modified Eagle Medium) supplemented with 10% FBS (Fetal Bovine Serum), 2 mM L-glutamine, and 100 u/ml Penicillin/1 μg/ml Streptomycin. About 1000-2000 cells T6-17/SK-BR-3 are layered on the top in 1 ml 0.18% agarose/DMEM, 10% FBS, 2 mM L-glutamine, and 100 μ/ml Penicillin/1 μg/ml Streptomycin. Cultures were treated every 3 days with 0.5 ml of supplemented DMEM containing measured amounts of the Her2 inhibitors, or DMSO (dimethyl sulfoxide) alone. On the day before the colonies were counted, the samples were incubated with 1 ml of Hank's Balanced Salt Solution containing 1 mg/ml p-iodonitrotetrazolium violet (INT, Sigma) to stain colonies. The next day, colonies were counted using a 7× achromatic magnifying eyepiece (Bausch and Lomb). Triplicate cultures were counted on day 21 and will be verified by at least two different persons. […]

T6-17 cells [1] = test: Soft agar colony growth screening, T6-17 cells; assay type: cell-based, murine; conditions: soft agar colonies counted on day 21, relative to DMSO control, p<0.05, FIG. 1/2
Experimental: as §2

[2] = test system: HER2 (phosphorylation at Y877); test: Inhibition of HER2 phosphorylation in HC1 cells (western blot); assay type: cell-based, human; conditions: serum-starved HC1 cells, inhibitor 1 hour, EGF 50 ng/ml 10 minutes, FIG. 4
Experimental: The effect of S22-57 was also examined in the cetuximab-resistant non-small cell lung cancer cell line HC1. Confluent HC1 cells were first serum starved for 24 hours before exposed to inhibitors as indicated for 1 hour. Cells were then stimulated by EGF (50 ng/ml) for 10 minutes. […] Both antibodies were purchased from Cell Signaling.

T6-17 cells [3] = test: MTT cell proliferation assay, T6-17 cells; assay type: cell-based, murine; conditions: indicated doses, three days, FIG. 3
From the text: as §1

With `O=C(CCc1cc(C(F)(F)F)cc(C(F)(F)F)c1)NN/C=C1\C=C(Cl)C=C(Cl)C1=O` [S22-57] the “inhibition of proliferation of HC1 cells” value (HC1 cells) was “inhibited T6-17 and HC1 dose-dependently”, the “effect on SK-BR-3 cell proliferation (colony growth in culture)” value (SK-BR-3 cells) was “reduced cellular growth in culture relative to DMSO control” and the “effect on T6-17 cell proliferation (colony growth in culture)” value (T6-17 cells [1]) was “reduced cellular growth in culture relative to DMSO control”. For the same compound, the “EGF-stimulated phosphorylation of HER2 at Y877” value [2] was “inhibited” and the “inhibition of proliferation of T6-17 cells” value (T6-17 cells [3]) was “inhibited T6-17 and HC1 dose-dependently”.
